These results are taken from US20140329892A1, “ADMINISTRATION OF A BIS(THIOHYDRAZIDE AMIDE) COMPOUND FOR TREATING CANCERS” (priority 2011, published 2014).

Series [1] in a line: Pharmacokinetics of I.V. bolus and continuous infusion (Alzet pump) in mice. It is filed as in vivo, Mouse.
Protocol: (§2) Mice received elesclomol salt administered in a single I.V. bolus dose of 50 mg/kg. Mice also received elesclomol salt administered by continuous infusion via Alzet pump. The pump was filled with a 40 mg/mL solution of elesclomol salt, and the solution was administered at 1 ml/hr, for a total daily dose of 32 mg/kg/day, based on average body weight of 30 g. The solution was delivered continuously for 7 days, and exposure was calculated from plasma levels collected at 70 hours post pump implantation.
In series [2] the test system is mitochondria isolated from HL-60 cells. As to the kind of experiment: MitoSox Red ROS assay in isolated mitochondria. Conditions: HL-60-derived mitochondria, 0.2 μM and 1 μM, 30 minutes. Type of series: cell-based, human. How it is done:
Mitochondria isolated from PBMCs or from HL-60 cells were treated for 30 minutes with either DMSO, free copper (CuCl2) at the concentrations of 0.2 μM and 1 μM, disulfiram-Cu complex (DSF-Cu) at the concentrations of 0.2 μM and 1 μM, and elesclomol-Cu complex at the concentrations of 0.2 μM and 1 μM. Subsequent to incubation, ROS levels were measured by MitoSox Red. The results of the MitoSox Red assay are shown in FIG. 2 as mean±SD of experiments with PBMCs isolated from three independent donors or with three individual experiments with HL-60.

Series [3] deals with HL-60 cells. As to the kind of experiment: Subcellular copper content by BCA assay after elesclomol-Cu treatment. It is filed as cell-based, human. Conditions: HL-60 cells treated for 2 hours. How it is done:
(§1) Human peripheral blood mononuclear cells (PBMCs) from 3 independent donors and human promyelotic tumor cell line HL-60 were treated with the elesclomol-Cu complex for 2 hours. Cells were subsequently fractionated into cytosolic, nuclear or mitochondrial fractions and the subcellular copper content was determined by BCA assay.

Series [4] deals with peripheral blood mononuclear cells (PBMCs). The description is as above. Type of series: cell-based, human. The following applies: PBMCs from 3 donors treated for 2 hours. How it is done: as §1
Series [5] concerns HL-60 cells. Description: Cellular copper and elesclomol levels after elesclomol incubation. The following applies: 100 nM, 3 hours. Type of series: cell-based, human. How it is done:
PBMCs and HL-60 cells were incubated with a vehicle (DMSO) or with 100 nM elesclomol for 3 hours. Subsequent to incubation, cellular copper levels and elesclomol levels for PBMCs and HL-60 cells were determined and are shown in FIG. 3.

Series [6] in a line: Mouse toxicity study of elesclomol salt continuously administered via Alzet pump. The arrangement: species or system mice of strain CD1. Conditions: in vivo. The procedure:
A total of 15 mice of strain CD1 were used for the toxicity study, of which 10 were in the elesclomol salt treatment group, and 5 were in the control group. Alzet pump was filled with a total of 200 μl of infusion solution and implanted subcutaneously within 1-2 hours. The infusion solution was continuously delivered for 7 days, and the pump was replaced with a new pump at day 8.

Series [7] in a line: Pharmacokinetics of 1-hour infusion in humans. Conditions: Human, 200 mg/m^2.
Protocol: as §2
Series [8] relates to HL-60 cells enriched with ^63Cu. Description: Cellular 63Cu and 65Cu levels by ICP-MS. The following applies: 100 nM, 0, 0.5, 3 and 9 hours, 10% FBS medium. It is filed as cell-based, human. How it is done:
A complex of elesclomol with ^65Cu was prepared. HL-60 cells enriched with ^63Cu were treated with 100 nM elesclomol-^65Cu or 100 nM free ^65Cu for 0, 0.5, 3 and 9 hours in 10% FBS medium. Cellular ^63Cu and ^65Cu levels were measured by inductively coupled plasma mass spectroscopy (ICP-MS).

For `CN1C(c2ccccc2)=[S][Cu]23[S]=C(c4ccccc4)N(C)[N]2C(=O)CC(=O)[N]13` [Elesclomol-Cu], the Exposure/day in series [1] (mouse, in vivo, 32 mg/kg/day) is recorded as 516 h * ng/mL/d; in series [1] (mouse, in vivo, iv, 50 mg/kg) it was 670 h * ng/mL/d. Moreover, the “ROS levels (MitoSox Red)” value in series [2] is given as “induces ROS in HL-60-derived mitochondria”. Besides, the “relative copper levels in the nuclear, cytosolic and mitochondrial fractions” value is on record as “copper levels increased only in HL-60 cells, particularly, in the mitochondrial fraction” in series [3] and “increased only in HL-60 cells” in series [4].

Regarding `CN(NC(=O)CC(=O)NN(C)C(=S)c1ccccc1)C(=S)c1ccccc1` [elesclomol, Elesclomol], the Exposure/day in series [1] (Mouse, elesclomol salt I.V. bolus, 50 mg/kg) is on record as 5140 h * ng/mL/d; in series [1] (Mouse, elesclomol salt by continuous infusion (pump), 32 mg/kg/d, calculated from plasma levels at 70 hours post pump implantation) it was 1183 h * ng/mL/d; in series [7], 4938 h * ng/mL/d. Further, in series [5] (HL-60 cells), the cellular copper levels entry was “remarkably and selectively elevated”. The cellular elesclomol levels entry in series [5] (HL-60 cells compared with PBMCs) was “slightly lower than that in PBMCs”. In series [6], the “overall toxicity / adverse effects” value is recorded as “not associated with acute toxicity”.

Consider `CN1C(c2ccccc2)=[S][65Cu]23[S]=C(c4ccccc4)N(C)[N]2C(=O)CC(=O)[N]13` [elesclomol-^65Cu], for which, in series [8], the “accumulation of ^63Cu in cells” value was “cause accumulation of ^63Cu in HL-60 cancer cells” and the “amount of copper accumulated in the cells versus length of exposure” value is given as “directly proportional to the length of time”.
